{
  "source": "patent US4981789A",
  "about": "“One-step enzymatic conversion of cephalosporin C and derivatives to 7-aminocephalosporanic acid and derivatives” (priority 1987, dated 1991)",
  "system": "cephalosporin C amidase",
  "test": "Conversion of desacetoxycephalosporin C to 7-ADCA by cephalosporin C amidase",
  "type": "biochemical, Arthrobacter viscosus ATCC 53594",
  "description": "As already described above, desacetoxycephalosporin C (DOAC) may be converted to 7-aminodesacetoxycephalosporanic acid (7-ADCA) using the enzyme and method of the present invention. This conversion may be illustrated as follows: [drawing 10] Cephalosporin C amidase, prepared as described above in Example 1, was incubated with 2 mg/ml DAOC for 3 hrs at 37° C. The reaction mixture required a pre-chromatography separation step using XAD-16® (Rohm and Haas) macroreticular water insoluble cross linked adsorbent polymer to remove coeluting contaminants. Chromatography was carried out in accordance with the procedures described above in Example 1 (except that the mobile phase consisted of 1 liter deionized water, 1.88 g hexyl sodium sulfonate, 2.025 ml phosphoric acid, and 25 ml acetonitrile, pH 2.75), and established that approximately 0.5 to 1.0% of the original DOAC substrate had been converted to 7-ADCA.",
  "data": [
    {"compound": "CC1=C(C(=O)O)N2C(=O)C(NC(=O)CCCC(N)C(=O)O)C2SC1", "note": "(stereo not shown) [DOAC, desacetoxycephalosporin C]", "values": [
      {"measurement": "extent of conversion to 7-ADCA compared with conversion of cephalosporin C to 7-ACA", "value": "essentially equivalent to the conversion of cephalosporin C to 7-aminocephalosporanic acid"}
    ]}
  ]
}
